“Also recorded” adds a separate entry of the source.
Experiments:
male Sprague Dawley rats = assay: rat intra rectal mustard oil model of visceral pain; type: in vivo; conditions: for reduction in behaviours compared to vehicle treated animals: behaviours counted 25 minutes; for statistical significance of reduction in behaviours vs vehicle: orally 60 minutes prior to mustard oil, all doses examined
Description: All behavioural responses consistent with the presence of pain were determined following intra rectal injection of mustard oil in male Sprague Dawley rats. Typical behavioural responses consistent with the presence of pain following intra-colonic mustard oil injection include: arching, abdominal lifting, abdominal tensing, stretching, extending the rear leg (when lying down), raising and lowering the testicles, tip-toeing and writhing.
Male Sprague Dawley rats (130 g-160 g) were briefly sedated with 50% oxygen/50% carbon dioxide and 0.2 ml of 3% mustard oil injected into the colorectum, 1.5 cm from the anus. The anus was plugged with vaseline and animals placed in observational cages to which they had previously been acclimatised for 45 minutes prior to mustard oil injection. The number of visceral pain related behaviours, which consisted primarily of abdominal arching, were counted over a 25 minute period and the animals culled by cervical dislocation.
In separate studies, the effects of alosetron (0.1, 0.3 and 1.0 mg/kg n=10 per group), gabapentin (10, 30 and 100 mg/kg n=10 per group) and amitriptyline (3, 10 and 30 mg/kg n=9-10 per group) or vehicle (saline for alosetron and amitriptyline 10% 1-Methyl-2-pyrolidone in saline for gabapentin n=10 per study) given sub cutaneously 15 minutes prior to injection of 3% mustard oil were examined on pain behaviour. Results in FIGS. 4, 5 and 6 are expressed as mean±sem percentage of behaviours compared to vehicle treated animals and were statistically compared to vehicle treated animals using a one way ANOVA with Dunnett's comparison, p<0.05 considered significant.
The effect of SB742457 (0.03, 0.1, 1.0, 3.0 and 10 mg/kg, n=10 per group for the 0.03, 0.1 and 10 mg/kg groups, and n=20 for the 1.0 and 3.0 mg/kg groups) or vehicle (saline n=20) given orally 60 minutes prior to injection of mustard oil (3% mustard oil, 70% ethanol in saline) were examined on pain behaviour. The total number of visceral pain related behaviours, which consisted primarily of abdominal arching, were counted over a 25 minute period and the animals culled by cervical dislocation. Behaviours were normalised as the percentage of the vehicle group mean and expressed as mean+/−sem. Data was combined from two studies and normalised as the percentage of the vehicle group mean for each individual study and expressed as mean+/−sem for both studies. Percentage of behaviours compared to vehicle treated animals were analysed statistically using a one way ANOVA with Dunnett's comparison, p<0.05 considered significant, FIG. 10.
The effect of SB792988A (0.03, 0.1, 0.3, 1.0, 3.0 and 10 mg/kg, n=9 for 1.0 mg/kg, n=10 per group for the 0.03, 0.1 and 3.0 mg/kg groups, n=20 per group for the 0.3 and 10 mg/kg groups) or vehicle (saline n=20) given orally 60 minutes prior to injection of mustard oil (3% mustard oil, 70% ethanol in saline) were examined on pain behaviour. The total number of visceral pain related behaviours, which consisted primarily of abdominal arching, were counted over a 25 minute period and the animals culled by cervical dislocation. Behaviours were normalised as the percentage of the vehicle group mean and expressed as mean+/−sem. Data was combined from two studies and normalised as the percentage of the vehicle group mean for each individual study and expressed as mean+/−sem for both studies. Percentage of behaviours compared to vehicle treated animals were analysed statistically using a one way ANOVA with Dunnett's comparison, p<0.05 considered significant, FIG. 11.

rats = assay: Chronic Constriction Injury (CCI) model of neuropathic pain in rats (mechanical allodynia, Von Frey hairs); type: in vivo, rat; conditions: 10 mg/kg b.i.d. po
Description: Under Isoflurane anaesthesia, the sciatic nerve in the left leg of the rat was exposed at mid thigh level and 4 loose ligatures of Chromic 4.0 gut tied around it. The wound was closed and secured with staples. The Sham operated animals underwent the same surgical technique except that the nerve was not ligated. […] The presence of mechanical (tactile) allodynia was assessed using the manual application of Von Frey hair monofilaments (Stoelting, Wood Dale, Ill., USA). Animals were placed in clear Perspex boxes on a raised perforated metallic platform, from below which the monofilaments were applied in ascending order to the plantar region of the hind paw (range: 1.4 g-26 g). Each hair was applied for approx. 3-5 seconds until a withdrawal response was observed. The lowest hair to give a withdrawal was recorded as the response after confirmation with reapplication of lower and/or higher hairs within the range tested.
All data are expressed as mean±s.e.m. Statistical analysis was carried out using Repeated Measures ANOVA (Statistica Version 6) to compare the vehicle treated groups with the drug treated groups (P<0.05 considered significant). Area Under Curve (AUC) calculations were performed within Excel and statistical analysis was carried out using a one-way ANOVA followed by Fischer LSD post-hoc test (Statistica Version 6) to compare the vehicle treated CCI and Sham groups with the drug treated groups (P<0.05 considered significant). Data recorded in Excel (Microsoft XP) and graphs produced in GraphPad Prism (Version 4).
By 8 days post-surgery neuropathy was beginning to develop as mechanical allodynia (assessed using mVFHs) was evident in all CCI operated groups compared to the Sham operated animals. This was maintained as a stable baseline until day 23 post-surgery (FIG. 12), when the animals were randomised and then chronically dosed with either SB742457 (10 mg/kg b.i.d. po), gabapentin (30 mg/kg b.i.d. po) or vehicle (1% methylcellulose; b.i.d. po) for 8 days (days 26-33 post-surgery). […] Three days after cessation of treatment the withdrawal thresholds of the drug treated groups had decreased back towards vehicle treated baseline levels.

[1] = 0.03 mg/kg orally 60 minutes prior to mustard oil
[2] = 0.1 mg/kg orally 60 minutes prior to mustard oil
[3] = 1.0 mg/kg orally 60 minutes prior to mustard oil
[4] = 3.0 mg/kg orally 60 minutes prior to mustard oil
[5] = 10 mg/kg orally 60 minutes prior to mustard oil

## Cl.O=S(=O)(c1cccc(F)c1)c1cnc2c(N3CCNCC3)cccc2c1 [SB792988A, 3-[(3-Fluorophenyl)sulfonyl]-8-(1-piperazinyl)quinoline Hydrochloride]
Male Sprague Dawley rats; [1]
  reduction in behaviours compared to vehicle treated animals: 38%
Male Sprague Dawley rats; [2]
  reduction in behaviours compared to vehicle treated animals: 40%
Male Sprague Dawley rats; 0.3 mg/kg orally 60 minutes prior to mustard oil
  reduction in behaviours compared to vehicle treated animals: 42%
Male Sprague Dawley rats; [3]
  reduction in behaviours compared to vehicle treated animals: 55%
Male Sprague Dawley rats; [4]
  reduction in behaviours compared to vehicle treated animals: 65%
Male Sprague Dawley rats; [5]
  reduction in behaviours compared to vehicle treated animals: 74%
Male Sprague Dawley rats
  statistical significance of reduction in behaviours vs vehicle: statistically significant from vehicle treated animals at all doses examined

## O=S(=O)(c1ccccc1)c1cnc2c(N3CCNCC3)cccc2c1 [SB742457, 3-Phenylsulfonyl-8-piperazin-1-yl-quinoline]
rats; after 5 days of dosing
  reversal of mechanical allodynia after 5 days of dosing: not significantly different to Sham levels; also recorded: maximal reversal back to Sham levels
rats; after 8 days of dosing
  reversal of mechanical allodynia after 8 days of dosing: maximal reversal (P<0.001) back to Sham levels
rats; after a single dose
  time to significant reversal of CCI-induced mechanical allodynia: ≤ 1 h
rats; throughout the study
  comparison with the positive control gabapentin (30 mg/kg b.i.d. po): not significantly different to each other
Male Sprague Dawley rats; [1]
  reduction in behaviours compared to vehicle treated animals: 56%
Male Sprague Dawley rats; [2]
  reduction in behaviours compared to vehicle treated animals: 56%
Male Sprague Dawley rats; [3]
  reduction in behaviours compared to vehicle treated animals: 44%
Male Sprague Dawley rats; [4]
  reduction in behaviours compared to vehicle treated animals: 50%
Male Sprague Dawley rats; [5]
  reduction in behaviours compared to vehicle treated animals: 62%
Male Sprague Dawley rats
  statistical significance of reduction in behaviours vs vehicle: statistically significant from vehicle treated animals at all doses examined

— US20100041672A1, “USE OF QUINOLINE DERIVATIVES IN THE TREATMENT OF PAIN AND IRRITABLE BOWEL SYNDROME” (GLAXO GROUP LIMITED, priority 2007, published 2010)
